Assay [1] relates to Mus musculus. The assay can be described thus: Antinociceptive activity in intratracheally dosed mouse assessed as inhibition of nicotine-induced antinociception after 5 mins by tail-flick assay. Format: functional. On the technique in general: In hot-plate and tail-flick tests a longer latency is read as antinociception.
The subject of assay [2] is Mus musculus. In words: Antinociceptive activity in mouse assessed as jumping or licking of paw behavior at 10 mg/kg, sc after 5 mins by hot-plate test. Format: functional.
Assay [3] concerns the target Neuronal acetylcholine receptor subunit alpha-7 (Rattus norvegicus) (UniProt Q05941). In words: Agonist activity at rat alpha7 nAChR expressed in Xenopus laevis oocytes assessed as mean current response at 100 uM by two-electrode voltage clamp electrophysiology assay relative to acetylcholine. Format: cell-based.
The target of assay [4] is T1, Neuronal acetylcholine receptor; alpha4/beta2 (Rattus norvegicus) (UniProt P09483+P12390). The assay can be described thus: Antagonist activity at rat alpha4beta2 nAChR expressed in Xenopus laevis oocytes assessed as inhibition of acetylcholine-induced mean current response by measuring remaining current at 100 uM by two-electrode voltage clamp electrophysiology assay relative to control; values are per cent of control. Background: In two-electrode clamp one electrode senses voltage and the other passes current.

In assay [5] the target is Neuronal acetylcholine receptor subunit alpha-7 (Rattus norvegicus) (UniProt Q05941). In words: Antagonist activity at rat alpha7 nAChR expressed in Xenopus laevis oocytes assessed as inhibition of acetylcholine-induced mean current response by measuring remaining current at 100 uM by two-electrode voltage clamp electrophysiology assay relative to control; values are per cent of control.
Sequence of Neuronal acetylcholine receptor subunit alpha-7 (Rattus norvegicus) (Q05941 whole entry): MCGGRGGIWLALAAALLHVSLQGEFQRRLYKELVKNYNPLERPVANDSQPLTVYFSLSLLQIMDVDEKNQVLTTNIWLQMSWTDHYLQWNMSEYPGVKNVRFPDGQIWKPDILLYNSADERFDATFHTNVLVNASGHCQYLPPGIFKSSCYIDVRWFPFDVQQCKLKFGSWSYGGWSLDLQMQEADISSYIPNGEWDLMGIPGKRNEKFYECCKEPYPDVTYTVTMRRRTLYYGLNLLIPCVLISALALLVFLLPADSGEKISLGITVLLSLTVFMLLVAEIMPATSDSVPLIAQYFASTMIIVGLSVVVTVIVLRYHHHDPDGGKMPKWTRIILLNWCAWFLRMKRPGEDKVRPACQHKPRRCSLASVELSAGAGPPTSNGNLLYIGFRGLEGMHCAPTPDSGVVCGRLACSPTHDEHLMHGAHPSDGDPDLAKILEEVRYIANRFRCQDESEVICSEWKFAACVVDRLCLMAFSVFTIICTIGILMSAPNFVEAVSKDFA

Assay [6] relates to Mus musculus. The assay can be described thus: Antinociceptive activity in mouse assessed as reduction of body rectal temperature at 10 mg/kg, sc. Format: functional. The arrangement: scale not given: the % may be the effect or the level left.
Assay [7] relates to Mus musculus. The assay can be described thus: Antinociceptive activity in mouse assessed as spontaneous locomotor activity at 10 mg/kg, sc measured for 10 mins. Format: functional.
In assay [8] the target is T1, Neuronal acetylcholine receptor; alpha4/beta2 (Rattus norvegicus). In words: Agonist activity at rat alpha4beta2 nAChR expressed in Xenopus laevis oocytes assessed as mean current response at 100 uM by two-electrode voltage clamp electrophysiology assay relative to acetylcholine. Format: cell-based.
For assay [9], the target named is T2, Neuronal acetylcholine receptor; alpha3/beta4 (Rattus norvegicus) (UniProt P04757+P12392). The assay can be described thus: Antagonist activity at rat alpha3beta4 nAChR expressed in Xenopus laevis oocytes assessed as inhibition of acetylcholine-induced mean current response by measuring remaining current at 100 uM by two-electrode voltage clamp electrophysiology assay relative to control; values are per cent of control.

In assay [10] the test system is Mus musculus. In words: Antinociceptive activity in mouse assessed as inhibition of nicotine-induced antinociception at 1000 ug/kg, sc after 5 mins by hot-plate test. Format: functional.
Assay [11] deals with Mus musculus. In words: Antinociceptive activity in mouse assessed as maximum latency at 10 mg/kg, administered as intratracheally after 5 mins by tail-flick assay. Format: functional.
Assay [12] concerns the target Neuronal acetylcholine receptor; alpha4/beta2 (Rattus norvegicus, UniProt P09483+P12390). The assay can be described thus: Displacement of [3H]-epibatidine from alpha4beta2 nAChR in rat cerebral cortex homogenates after 4 hrs by liquid scintillation counting. Format: tissue-based. (In a radioligand displacement assay an active substance lowers the binding of a labelled ligand.)

The target of assay [13] is T2, Neuronal acetylcholine receptor; alpha3/beta4 (Rattus norvegicus). The assay can be described thus: Agonist activity at rat alpha3beta4 nAChR expressed in Xenopus laevis oocytes assessed as mean current response at 100 uM by two-electrode voltage clamp electrophysiology assay relative to acetylcholine. Format: cell-based.
Assay [14] deals with Mus musculus. In words: Antinociceptive activity in mouse assessed as inhibition of nicotine-induced antinociception at 10000 ug/kg, sc after 5 mins by hot-plate test. Format: functional.

Sequence of Neuronal acetylcholine receptor; alpha4/beta2 (P09483 whole entry): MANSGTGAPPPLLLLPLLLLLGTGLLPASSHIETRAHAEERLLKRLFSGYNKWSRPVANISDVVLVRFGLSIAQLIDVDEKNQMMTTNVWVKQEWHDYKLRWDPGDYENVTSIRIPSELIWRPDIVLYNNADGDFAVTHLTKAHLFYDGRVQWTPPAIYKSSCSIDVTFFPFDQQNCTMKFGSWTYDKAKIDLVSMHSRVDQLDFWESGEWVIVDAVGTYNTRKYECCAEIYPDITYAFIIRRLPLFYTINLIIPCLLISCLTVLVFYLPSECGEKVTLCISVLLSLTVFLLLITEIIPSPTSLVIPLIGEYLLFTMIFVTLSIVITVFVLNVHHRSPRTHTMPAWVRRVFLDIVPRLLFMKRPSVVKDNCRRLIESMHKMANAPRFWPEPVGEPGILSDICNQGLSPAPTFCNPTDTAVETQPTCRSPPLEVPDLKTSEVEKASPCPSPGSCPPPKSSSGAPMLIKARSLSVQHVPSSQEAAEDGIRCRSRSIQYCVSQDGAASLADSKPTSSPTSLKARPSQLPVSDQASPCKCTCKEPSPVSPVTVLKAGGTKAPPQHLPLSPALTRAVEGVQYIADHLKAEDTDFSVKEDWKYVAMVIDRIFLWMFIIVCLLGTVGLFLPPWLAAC
Sequence of Neuronal acetylcholine receptor; alpha4/beta2 (P12390 whole entry): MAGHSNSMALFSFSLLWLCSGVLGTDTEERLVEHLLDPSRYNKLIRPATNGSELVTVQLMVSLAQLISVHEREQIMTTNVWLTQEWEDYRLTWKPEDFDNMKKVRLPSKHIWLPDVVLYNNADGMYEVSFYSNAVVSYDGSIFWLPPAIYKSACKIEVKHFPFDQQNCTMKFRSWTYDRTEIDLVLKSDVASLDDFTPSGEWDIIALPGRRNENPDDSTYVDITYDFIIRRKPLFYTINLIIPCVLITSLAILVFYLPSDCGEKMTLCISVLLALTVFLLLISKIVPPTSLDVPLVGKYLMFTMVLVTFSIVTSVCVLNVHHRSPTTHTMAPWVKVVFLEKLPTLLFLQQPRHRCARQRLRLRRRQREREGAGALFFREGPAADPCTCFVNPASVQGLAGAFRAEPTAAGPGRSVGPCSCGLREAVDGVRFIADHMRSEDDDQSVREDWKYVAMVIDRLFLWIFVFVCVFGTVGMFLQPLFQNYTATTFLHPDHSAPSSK

Regarding `Nc1cc(-c2cncc([C@H]3C[C@H]4CC[C@H]3N4)c2)ccn1` (racemic), the AD50 in the assay on Mus musculus [1] turned out to be 1 µg/kg. Besides, the Activity was 5% with Mus musculus [2]; 12% in [3]; 0% in the assay with Mus musculus [6]; 20% in the assay on Mus musculus [7]; 0% in assay [8]; 1% with Mus musculus [11]. Further, in assay [13], the Activity stood at 1.2%. For the same compound, the residual activity is 5.2% in [4], 44% in assay [5] and 4.2% in assay [9]. In addition, the inhibition in vivo at 1 mg/kg in the assay with Mus musculus [10] came out at 32%. Moreover, the affinity in assay [12], expressed as Ki, was 0.38 nM.
For the compound `Nc1ccc(-c2cncc([C@H]3C[C@H]4CC[C@H]3N4)c2)cn1` (racemic), the AD50 in the assay with Mus musculus [1] is 1.5 µg/kg. Also, the Activity with Mus musculus [2] was determined as 14%; in assay [3], 7%; in the assay with Mus musculus [6] it was 0%; in the assay on Mus musculus [7], 20%; in assay [8], 0%; in the assay with Mus musculus [11], 3%. In addition, the Activity in assay [13] was 0%. Moreover, the inhibition in vivo at 10 mg/kg with Mus musculus [14] is 50%. Also, the values for the residual activity in assay [4], in assay [5] and in [9] were 5.7%, 46% and 5.4%, respectively. In [12], this compound showed a Ki of 0.9 nM.

As usually defined, the inhibition in vivo is how much of the control response was suppressed. In general, Ki refers to a measure of affinity in units of concentration, obtained from inhibition or displacement.

The values above are taken from ChEMBL document CHEMBL3608275, “Synthesis, nicotinic acetylcholine receptor binding, in vitro and in vivo pharmacology properties of 3'-(substituted pyridinyl)-deschloroepibatidine analogs” (Bioorg Med Chem, 2015).
